The term IC50 denotes the concentration needed to halve the response being measured.

IC50 data for 25 molecules are collected here from US20190135793A1, “HETEROCYCLIC INHIBITORS OF KDM5 FOR THE TREATMENT OF DISEASE” (Board of Regents, The University of Texas System, priority 2017, published 2019).

The target of assay [1] is T1, KDM4C (Homo sapiens, UniProt Q9H3R0).
T1 construct: Full length of KDM5B and KDM4C protein were purchased from Active Motif; purchased Active Motif 31858
T1 sequence (Q9H3R0 1-1056): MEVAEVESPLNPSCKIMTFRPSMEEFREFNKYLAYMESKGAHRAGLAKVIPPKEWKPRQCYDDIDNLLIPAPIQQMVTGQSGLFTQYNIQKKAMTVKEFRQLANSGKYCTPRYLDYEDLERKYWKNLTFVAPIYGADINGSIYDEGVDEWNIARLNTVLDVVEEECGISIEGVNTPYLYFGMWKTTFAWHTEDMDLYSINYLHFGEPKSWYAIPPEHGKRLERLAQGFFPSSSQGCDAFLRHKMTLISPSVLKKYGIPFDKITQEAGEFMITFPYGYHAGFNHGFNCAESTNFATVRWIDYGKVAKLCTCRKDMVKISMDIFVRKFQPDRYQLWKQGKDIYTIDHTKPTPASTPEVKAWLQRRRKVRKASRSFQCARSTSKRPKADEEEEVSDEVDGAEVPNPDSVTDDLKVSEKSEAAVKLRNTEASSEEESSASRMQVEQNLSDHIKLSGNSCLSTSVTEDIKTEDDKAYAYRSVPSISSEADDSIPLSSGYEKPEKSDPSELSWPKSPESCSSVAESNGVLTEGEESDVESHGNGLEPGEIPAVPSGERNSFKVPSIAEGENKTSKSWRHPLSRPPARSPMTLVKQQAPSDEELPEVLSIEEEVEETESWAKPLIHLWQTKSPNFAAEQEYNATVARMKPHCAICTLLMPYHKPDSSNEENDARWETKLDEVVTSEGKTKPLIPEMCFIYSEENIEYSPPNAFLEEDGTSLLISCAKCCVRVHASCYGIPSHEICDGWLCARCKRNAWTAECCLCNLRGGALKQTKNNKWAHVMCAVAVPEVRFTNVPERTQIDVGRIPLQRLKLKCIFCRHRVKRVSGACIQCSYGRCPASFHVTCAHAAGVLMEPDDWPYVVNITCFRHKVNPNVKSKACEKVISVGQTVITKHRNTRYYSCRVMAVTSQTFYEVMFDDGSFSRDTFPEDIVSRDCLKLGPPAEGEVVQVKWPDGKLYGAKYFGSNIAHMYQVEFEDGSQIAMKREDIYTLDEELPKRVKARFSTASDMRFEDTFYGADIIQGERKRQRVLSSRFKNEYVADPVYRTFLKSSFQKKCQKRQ
The assay can be described thus: KDM4C AlphaScreen assay. The class given is biochemical. To be noted: AlphaScreen; full length KDM4C 0.2 nM; biotinylated H3K9Me3 peptide 3 nM; 30 minutes at room temperature. A digest of the protocol: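 Full-length KDM4C (0.2 nM final) was preincubated 15 min at RT with compound in HEPES pH 7.4 with Tween-20, BSA and TCEP. The reaction ran 30 min at RT after adding biotinylated peptide (3 nM final) in buffer with Fe(II), α-ketoglutarate and ascorbate. EDTA-containing AlphaScreen beads stopped it; IC50 was curve-fitted.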

Assay [2] deals with T2, KDM5B (Homo sapiens, UniProt Q9UGL1).
T2 construct: Full length of KDM5B and KDM4C protein were purchased from Active Motif; purchased Active Motif 31832
T2 sequence (Q9UGL1 whole entry): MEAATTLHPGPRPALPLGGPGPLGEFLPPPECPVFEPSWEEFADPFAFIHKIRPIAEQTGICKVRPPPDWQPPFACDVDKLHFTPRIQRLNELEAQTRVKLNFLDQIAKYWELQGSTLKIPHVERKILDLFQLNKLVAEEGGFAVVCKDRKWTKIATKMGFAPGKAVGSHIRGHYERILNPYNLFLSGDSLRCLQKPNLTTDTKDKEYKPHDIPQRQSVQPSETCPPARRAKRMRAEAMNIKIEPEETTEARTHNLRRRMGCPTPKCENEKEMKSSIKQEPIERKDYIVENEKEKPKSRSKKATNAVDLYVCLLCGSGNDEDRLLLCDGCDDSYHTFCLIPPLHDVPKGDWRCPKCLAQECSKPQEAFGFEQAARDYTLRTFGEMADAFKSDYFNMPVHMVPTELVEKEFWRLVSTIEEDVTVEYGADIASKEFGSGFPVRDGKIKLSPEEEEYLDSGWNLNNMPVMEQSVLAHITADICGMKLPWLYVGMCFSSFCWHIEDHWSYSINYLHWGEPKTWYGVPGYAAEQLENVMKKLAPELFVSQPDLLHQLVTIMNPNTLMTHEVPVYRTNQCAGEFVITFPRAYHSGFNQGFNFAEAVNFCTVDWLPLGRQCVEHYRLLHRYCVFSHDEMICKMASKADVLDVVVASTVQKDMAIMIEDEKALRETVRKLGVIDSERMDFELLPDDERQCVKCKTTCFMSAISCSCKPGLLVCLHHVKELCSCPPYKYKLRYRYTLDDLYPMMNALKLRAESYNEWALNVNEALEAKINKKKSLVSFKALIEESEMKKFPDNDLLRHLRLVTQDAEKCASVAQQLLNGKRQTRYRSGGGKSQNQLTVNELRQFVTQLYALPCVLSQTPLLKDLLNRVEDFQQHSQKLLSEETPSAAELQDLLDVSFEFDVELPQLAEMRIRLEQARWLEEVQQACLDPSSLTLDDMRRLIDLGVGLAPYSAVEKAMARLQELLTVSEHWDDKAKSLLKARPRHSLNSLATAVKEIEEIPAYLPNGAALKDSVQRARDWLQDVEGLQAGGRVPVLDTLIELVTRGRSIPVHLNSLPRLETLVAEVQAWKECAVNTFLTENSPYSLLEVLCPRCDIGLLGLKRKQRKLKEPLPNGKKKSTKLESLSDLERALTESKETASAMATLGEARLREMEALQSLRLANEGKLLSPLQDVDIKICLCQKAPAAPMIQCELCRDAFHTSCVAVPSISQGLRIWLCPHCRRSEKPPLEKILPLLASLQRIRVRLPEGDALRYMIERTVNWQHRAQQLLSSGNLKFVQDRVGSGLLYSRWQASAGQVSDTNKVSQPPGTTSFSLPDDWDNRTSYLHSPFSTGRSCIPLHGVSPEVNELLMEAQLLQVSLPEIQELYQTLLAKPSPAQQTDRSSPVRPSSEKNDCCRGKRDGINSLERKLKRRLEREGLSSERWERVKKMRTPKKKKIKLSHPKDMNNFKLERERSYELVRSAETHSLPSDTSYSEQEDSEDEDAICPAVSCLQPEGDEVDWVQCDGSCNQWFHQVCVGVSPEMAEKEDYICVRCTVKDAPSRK
The assay can be described thus: biochemical. A digest of the protocol:
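KDM5B (0.5 nM final) was preincubated with compound for 15 min at room temperature, then reacted with biotinylated peptide (3 nM final) for 25 min at room temperature.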

The mark [3] stands for this setting: AlphaScreen, full length KDM5B 0.5 nM, biotinylated H3K4Me3 peptide 3 nM, 25 minutes at room temperature, read-out: KDM5B (IC50).

The structures appear in SMILES notation. Read-outs that look alike come from different tables or passages of the source.

Take `CC(C)c1c(O)nc(-n2ccnc2)nc1OCc1ccccc1` [Example 134, 6-(Benzyloxy)-2-(1H-imidazol-1-yl)-5-(propan-2-yl)pyrimidin-4-ol]: the IC50 in assay [1] was found to be 1450 nM; in assay [2], 31 nM.

As for `CC(C)c1c(O)nc(-n2ccnc2)nc1-c1cnn(C2CCCC2)c1` [Example 67, 6-(1-Cyclopentyl-1H-pyrazol-4-yl)-2-(1H-imidazol-1-yl)-5-(propan-2-yl)pyrimidin-4-ol], the values for the IC50 in assay [1] and in assay [2] were 1340 nM and 19 nM, respectively.

In the case of `CC(C)c1c(O)nc(-n2ccnc2-c2ccccn2)nc1-c1cccc(CNS(C)(=O)=O)c1` [Example 89, N-({3-[6-Hydroxy-5-(propan-2-yl)-2-[2-(pyridin-2-yl)-1H-imidazol-1-yl]pyrimidin-4-yl]phenyl}methyl)methane-sulfonamide], the results for the IC50 in assay [1] and in assay [2] (setting [3]) were 20000 nM and 266 nM, respectively.

As to `CC(C)c1c(O)nc(-n2ccnc2)nc1-c1cccc(CNS(C)(=O)=O)c1` [Example 76, N-({3-[6-Hydroxy-2-(1H-imidazol-1-yl)-5-(propan-2-yl)pyrimidin-4-yl]phenyl}-methyl)methanesulfonamide], the IC50 in assay [1] amounted to 1860 nM; in assay [2] it was 29 nM.

As to `CC(C)c1c(O)nc(-c2cncs2)nc1OCc1ccncc1` [Example 144, 5-(Propan-2-yl)-6-(pyridin-4-ylmethoxy)-2-(1,3-thiazol-5-yl)pyrimidin-4-ol], the concentration for half-maximal inhibition (IC50) came out at 2920 nM in assay [1] and 140 nM in assay [2] (setting [3]).

In the case of `CC(C)c1c(O)nc(-n2ccnc2)nc1-c1cnn(CC(=O)NCCO)c1` [Example 104, 2-{4-[6-Hydroxy-2-(1H-imidazol-1-yl)-5-(propan-2-yl)pyrimidin-4-yl]-1H-pyrazol-1-yl}-N-(2-hydroxy-ethyl)acetamide], the values for the IC50 in assay [1] and in assay [2] were 1380 nM and 15 nM, respectively.

As to `CC(C)c1c(O)nc(-n2ccnc2)nc1-c1cnn(CC(=O)N2CCCC(O)C2)c1` (centres unmarked) [Example 74, 2-{4-[6-Hydroxy-2-(1H-imidazol-1-yl)-5-(propan-2-yl)pyrimidin-4-yl]-1H-pyrazol-1-yl}-1-(3-hydroxy-piperidin-1-yl)ethan-1-one], the IC50 in assay [1] was 1750 nM; in assay [2] (setting [3]) it was 25 nM.

As to `CC(C)c1c(O)nc(-n2ccnc2)nc1-c1cnn(CC2CC2)c1` [Example 52, 6-[1-(Cyclopropylmethyl)-1H-pyrazol-4-yl]-2-(1H-imidazol-1-yl)-5-(propan-2-yl)pyrimidin-4-ol], the IC50 was found to be 840 nM in assay [1] and 14 nM in assay [2].

Turning to `Cc1nc(-c2cncn2C)nc(O)c1C(C)C` [Example 31, 6-methyl-2-(1-methyl-1H-imidazol-5-yl)-5-(propan-2-yl)pyrimidin-4-ol], the IC50 was 5680 nM in assay [1] and 74 nM in assay [2].

`Cc1nc(-c2cncs2)nc(O)c1C(C)C` [Example 155, 6-Methyl-5-(propan-2-yl)-2-(1,3-thiazol-5-yl)-pyrimidin-4-ol]: the figures for the IC50 in assay [1] and in assay [2] were 1650 nM and 65 nM, respectively.

Take `Cc1noc(C)c1-c1nc(-n2ccnc2)nc(O)c1C(C)C` [Example 84, 6-(Dimethyl-1,2-oxazol-4-yl)-2-(1H-imidazol-1-yl)-5-(propan-2-yl)pyrimidin-4-ol]: the IC50 in assay [1] worked out at 10700 nM; in assay [2], 190 nM.

For `CC(C)c1c(O)nc(-n2ccnc2)nc1-c1cnn(Cc2ccccn2)c1` [Example 64, 2-(1H-Imidazol-1-yl)-5-(propan-2-yl)-6-[1-(pyridin-2-ylmethyl)-1H-pyrazol-4-yl]-pyrimidin-4-ol], the IC50 in assay [1] worked out at 2010 nM; in assay [2] (setting [3]) it was 19 nM.

`Cc1nc(-c2c[nH]cn2)nc(O)c1C(C)C` [Example 21, 2-(1H-imidazol-4-yl)-5-isopropyl-6-methylpyrimidin-4-ol]: the IC50 in assay [1] came to 21100 nM; in assay [2], 1930 nM.

Turning to `CCn1cc(-c2nc(-n3ccnc3)nc(O)c2C(C)C)cn1` [Example 66, 6-(1-Ethyl-1H-pyrazol-4-yl)-2-(1H-imidazol-1-yl)-5-(propan-2-yl)pyrimidin-4-ol], the IC50 in assay [1] is 1180 nM; in assay [2] it was 19 nM.

As for `CC(C)c1c(O)nc(-n2ccnc2)nc1-c1ccc(C(N)=O)nc1` [Example 9, 5-(6-hydroxy-2-(1H-imidazol-1-yl)-5-isopropylpyrimidin-4-yl)picolinamide], the IC50 in assay [1] amounted to 2390 nM; in assay [2] (setting [3]) it was 13 nM.

On to `CC(C)c1c(O)nc(-n2ccnc2)nc1-c1cnn(CC(=O)NCCc2ccccn2)c1` [Example 105, 2-{4-[6-Hydroxy-2-(1H-imidazol-1-yl)-5-(propan-2-yl)pyrimidin-4-yl]-1H-pyrazol-1-yl}-N-[2-(pyridin-2-yl)ethyl]acetamide], for which the IC50 came out at 1080 nM in assay [1] and 17 nM in assay [2].

In the case of `CC(C)c1c(O)nc(-n2ccnc2)nc1-c1cnn(Cc2ccccc2)c1` [Example 63, 6-(1-Benzyl-1H-pyrazol-4-yl)-2-(1H-imidazol-1-yl)-5-(propan-2-yl)pyrimidin-4-ol], the IC50 in assay [1] came to 1540 nM; in assay [2], 18 nM.

In the case of `CC(CN1CCOCC1)Oc1nc(-n2ccnc2)nc(O)c1C(C)C` (centres unmarked) [Example 138, 2-(1H-Imidazol-1-yl)-6-{[1-(morpholin-4-yl)propan-2-yl]oxy}-5-(propan-2-yl)-pyrimidin-4-ol], the IC50 in assay [1] was found to be 5560 nM; in assay [2], 65 nM.

On to `CC(C)c1c(O)nc(-n2ccnc2)nc1-c1cccc(CN)c1` [Example 41, 6-[3-(Aminomethyl)phenyl]-2-(1H-imidazol-1-yl)-5-(propan-2-yl)pyrimidin-4-ol], for which the IC50 in assay [1] amounted to 281 nM; in assay [2] (setting [3]) it was 3 nM.

In the case of `CCc1c(C)nc(-c2cncs2)nc1O` [Example 156, 5-Ethyl-6-methyl-2-(1,3-thiazol-5-yl)-pyrimidin-4-ol], the half-maximal inhibitory concentration (IC50) in assay [1] turned out to be 8060 nM; in assay [2], 660 nM.

As for `CC(C)c1c(O)nc(-n2ccnc2)nc1-c1cnn(CC(=O)N2CCC(C#N)C2)c1` (centres unmarked) [Example 101, 1-(2-{4-[6-Hydroxy-2-(1H-imidazol-1-yl)-5-(propan-2-yl)pyrimidin-4-yl]-1H-pyrazol-1-yl}acetyl)-pyrrolidine-3-carbonitrile], the half-inhibitory concentration (IC50) stood at 881 nM in assay [1] and 12 nM in assay [2].

In the case of `Cc1n[nH]cc1-c1nc(-n2ccnc2)nc(O)c1C(C)C` [Example 60, 2-(1H-Imidazol-1-yl)-6-(5-methyl-1H-pyrazol-4-yl)-5-(propan-2-yl)pyrimidin-4-ol], the values for the IC50 in assay [1] and in assay [2] (setting [3]) were 1660 nM and 17 nM, respectively.

Take `CC(C)c1c(O)nc(-n2ccnc2)nc1-c1cnn(C(C)C)c1` [Example 1, 2-(1H-imidazol-1-yl)-5-isopropyl-6-(1-isopropyl-1H-pyrazol-4-yl)pyrimidin-4-ol]: the figures for the IC50 in assay [1] and in assay [2] were 1050 nM and 12 nM, respectively.

Consider `CC(C)c1c(O)nc(-n2ccnc2)nc1CCc1cccnc1` [Example 10b, 2-(1H-imidazol-1-yl)-5-(propan-2-yl)-6-[2-(pyridin-3-yl)ethyl]pyrimidin-4-ol], for which the 50% inhibitory concentration (IC50) in assay [1] was determined as 1490 nM; in assay [2], 11 nM.

As for `CC(C)c1c(O)nc(-n2ccnc2)nc1-c1cnn(C2CC2)c1` [Example 47, 6-(1-Cyclopropyl-1H-pyrazol-4-yl)-2-(1H-imidazol-1-yl)-5-(propan-2-yl)pyrimidin-4-ol], the IC50 in assay [1] came to 771 nM; in assay [2] it was 11 nM.
